Among the data in ChEMBL document CHEMBL4483862, “Open-source discovery of chemical leads for next-generation chemoprotective antimalarials” (2018) are IC50 and IC90 values, retold here.

For this experiment, the system named is Plasmodium berghei. The experiment can be described thus: Luciferase/luciferin-expressing antifolate-resistant parasites were used to infect a culture of HepG2 cells that were pre-incubated with compounds. Infected hepatocytes emit light due to the luciferase reaction. Assay results are presented as the percent inhibition of light emission compared to control. […]. It is filed as functional. The settings on record: sporozoite; for IC90: read-out: LUCIFERASE INFECTION ASSAY - IC90.

The mark [1] stands for this setting: read-out: LUCIFERASE INFECTION ASSAY - IC50.

In general, IC50 refers to the concentration that gives 50% inhibition. By IC90 is commonly meant the concentration at which the effect reaches the 90% level. On to `OC(c1ccc(Cl)cc1)c1nnc(Nc2cc(C(F)(F)F)ccc2F)s1` (stereo not given), for which the 90% effect concentration (IC90) was > 10 µM. Also, under setting [1], the IC50 is > 10 µM.
As for `Cc1nn(C)c(Cl)c1C=C(C(=O)NCCc1ccccc1)C(=O)NCCc1ccccc1`, the concentration for an effect of 90% (IC90) is > 10 µM. Besides, the 50% inhibitory concentration (IC50) under setting [1] was > 10 µM.
Regarding `OC[C@H]1O[C@@H](c2nc(-c3nc(-c4ccc5[nH]ccc5c4)no3)cs2)[C@H](O)[C@@H]1O`, the concentration for an effect of 90% (IC90) amounted to 1.55 µM. Moreover, the concentration for half-maximal inhibition (IC50) (PBLUC_HILL_SLOPE 1.16, PBLUC_R_SQUARED 0.583, read-out: LUCIFERASE INFECTION ASSAY - IC50) was determined as 0.232 µM.
With `CCN(CC)CCn1c(NC(=O)c2cccc3c[nH]nc23)nc2ccccc21`, the IC90 was > 10 µM. In addition, under “HEPG2TOX_HILL_SLOPE 0.322, HEPG2TOX_R_SQUARED 0.707, PBLUC_HILL_SLOPE 3.59, PBLUC_R_SQUARED 0.259, read-out: LUCIFERASE INFECTION ASSAY - IC50”, the IC50 came to 6.09 µM.
With `CCOC(=O)c1sc(N(NC(=O)c2ccccc2Cl)C(=O)c2ccccc2Cl)c2c1CC(C)(C)CC2=O`, the IC90 is > 5.9 µM. The IC50 (HEPG2TOX_HILL_SLOPE 5.11, HEPG2TOX_R_SQUARED 0.645, PBLUC_HILL_SLOPE 3.24, PBLUC_R_SQUARED 0.155, read-out: LUCIFERASE INFECTION ASSAY - IC50) turned out to be 3.1 µM.
Turning to `COc1cc(OC)cc(-c2cnc3cnc(-c4ccccc4N(C)C)cn23)c1`, the concentration for an effect of 90% (IC90) was 3.18 µM. Besides, for the setting “HEPG2TOX_HILL_SLOPE 1.54, HEPG2TOX_R_SQUARED 0.879, PBLUC_HILL_SLOPE 8.17, PBLUC_R_SQUARED 0.657, read-out: LUCIFERASE INFECTION ASSAY - IC50”, the 50% inhibitory concentration (IC50) turned out to be 2.43 µM.
Regarding `COc1ccc(C2=CS/C(=C(/C#N)c3nnc4n3CCCCC4)N2c2ccccc2)cc1`, the 90% effect concentration (IC90) was > 10 µM. In addition, where the note is “PBLUC_HILL_SLOPE 18.4, PBLUC_R_SQUARED 0.0899, read-out: LUCIFERASE INFECTION ASSAY - IC50”, the concentration for half-maximal inhibition (IC50) is 9.78 µM.
Take `COc1cccc(C2CNC(c3ccc(Cl)cc3)c3[nH]c4ccccc4c32)c1OC` (stereo not given): the IC90 is 5.44 µM. Further, the half-inhibitory concentration (IC50) (PBLUC_HILL_SLOPE 2.02, PBLUC_R_SQUARED 0.709, read-out: LUCIFERASE INFECTION ASSAY - IC50) was 1.84 µM.
Take `O=C(CSc1ccccc1)Nc1nc2ccccn2c1C(=O)NC1CCCCC1`: the IC90 was > 8.08 µM. The IC50 (HEPG2TOX_HILL_SLOPE 2.44, HEPG2TOX_R_SQUARED 0.782, PBLUC_HILL_SLOPE 1.51, PBLUC_R_SQUARED 0.873, read-out: LUCIFERASE INFECTION ASSAY - IC50) is 2.83 µM.
With `CCCn1c(NC(=O)c2cccnc2SC)nc2ccccc21`, the 90% effect concentration (IC90) is > 10 µM. Besides, the IC50 (PBLUC_HILL_SLOPE 14.8, PBLUC_R_SQUARED 0.146, read-out: LUCIFERASE INFECTION ASSAY - IC50) amounted to 9.22 µM.
Consider `CC(C)n1c(Sc2ncc([N+](=O)[O-])s2)nc2ccccc21`, for which the IC90 came out at 4.36 µM. For the same compound, the 50% inhibitory concentration (IC50) (FFLUC_HILL_SLOPE 5.73, FFLUC_R_SQUARED 0.583, HEPG2TOX_HILL_SLOPE 3.25, HEPG2TOX_R_SQUARED 0.992, PBLUC_HILL_SLOPE 9.74, PBLUC_R_SQUARED 0.283, read-out: LUCIFERASE INFECTION ASSAY - IC50) is 3.48 µM.
Consider `O=C(NC1CC1)c1ccc(-c2cnc3cnc(-c4cccs4)cn23)cc1`, for which the 90% effect concentration (IC90) was > 9.16 µM. Also, the IC50 (PBLUC_HILL_SLOPE 1.19, PBLUC_R_SQUARED 0.184, read-out: LUCIFERASE INFECTION ASSAY - IC50) was > 9.16 µM.
On to `O=C(Nc1ccc(CN2CCCC2)cc1)c1[nH]nc2ccccc12`, for which the 90% effect concentration (IC90) stood at 5.09 µM. For the same compound, the IC50 (FFLUC_HILL_SLOPE 0.453, FFLUC_R_SQUARED 0.794, PBLUC_HILL_SLOPE 1.12, PBLUC_R_SQUARED 0.946, read-out: LUCIFERASE INFECTION ASSAY - IC50) came out at 0.718 µM.
Take `CCSc1nc(SCCCN(C)C)c2c3c(sc2n1)COC(C)(C)C3`: the IC90 is > 8.3 µM. In addition, the IC50 under setting [1] was > 8.3 µM.
Take `COc1ccc2nc(C(=O)NNC(=O)c3cc(C)oc3C)ccc2c1`: the IC90 is > 10 µM. Moreover, the IC50 (HEPG2TOX_HILL_SLOPE 10.5, HEPG2TOX_R_SQUARED 0.205, PBLUC_HILL_SLOPE 2.55, PBLUC_R_SQUARED 0.459, read-out: LUCIFERASE INFECTION ASSAY - IC50) was 6.67 µM.
As to `CNc1snc(C)c1C(=O)NC(C)c1ccc(C(C)C)cc1` (stereo not given), the IC90 came to 2.91 µM. The IC50 (HEPG2TOX_HILL_SLOPE 0.648, HEPG2TOX_R_SQUARED 0.871, PBLUC_HILL_SLOPE 1.92, PBLUC_R_SQUARED 0.818, read-out: LUCIFERASE INFECTION ASSAY - IC50) is 0.93 µM.
On to `Cc1ccc(NC(=O)Nc2ccc3nc(-c4ccsc4)nn3c2)cc1`, for which the concentration for an effect of 90% (IC90) was > 10 µM. Also, where the note is “PBLUC_HILL_SLOPE 7.59, PBLUC_R_SQUARED 0.413, read-out: LUCIFERASE INFECTION ASSAY - IC50”, the half-inhibitory concentration (IC50) amounted to 8.75 µM.
On to `O=C(Nc1ccc(C(OC(=O)c2ccccc2)(C(F)(F)F)C(F)(F)F)cc1)c1ccccc1`, for which the IC90 was > 10 µM. The IC50 under setting [1] is > 10 µM.
Regarding `C=C(c1ccccc1)[n+]1ccc(C(=O)c2ccccc2)cc1`, the IC90 was > 9.01 µM. Further, where the note is “HEPG2TOX_HILL_SLOPE 15.5, HEPG2TOX_R_SQUARED 0.47, PBLUC_HILL_SLOPE 4.11, PBLUC_R_SQUARED 0.394, read-out: LUCIFERASE INFECTION ASSAY - IC50”, the half-inhibitory concentration (IC50) was found to be 5.35 µM.
With `CCc1cccc2c(C3=CCN(c4ncnc5c4cnn5C)CC3)c[nH]c12`, the IC90 was > 10 µM. Moreover, the IC50 under setting [1] was > 10 µM.
Take `O=C1c2cc(Br)ccc2S(=O)(=O)N1CC(c1ccco1)N1CCCC1` (stereo not given): the IC90 is > 10 µM. For the same compound, under setting [1], the 50% inhibitory concentration (IC50) is > 10 µM.
Consider `CC(C)(C)c1cc(NC(=O)CN2CCN(CCOc3ccccc3)CC2)n(-c2ccccc2)n1`, for which the IC90 is > 10 µM. Further, the IC50 (PBLUC_HILL_SLOPE 3.74, PBLUC_R_SQUARED 0.753, read-out: LUCIFERASE INFECTION ASSAY - IC50) turned out to be 6.22 µM.
`Cc1cc(C(C)(C)C)cc(C)c1COC(=O)/C(=C/c1ccccc1)n1nnnc1C`: the IC90 is > 10 µM. Moreover, the IC50 under setting [1] was > 10 µM.
Consider `Cc1cc(C)c(OCC(=O)N2CCCC2c2nc3ccccc3[nH]2)c(C)c1` (stereo not given), for which the IC90 was > 10 µM. The IC50 under setting [1] is > 10 µM.
On to `CC(C)(C)OC(=O)N1CCc2nc(NC(=O)c3ccc4nc[nH]c4c3)sc2C1`, for which the concentration for an effect of 90% (IC90) is > 10 µM. For the same compound, the half-maximal inhibitory concentration (IC50) (HEPG2TOX_HILL_SLOPE 6.67, HEPG2TOX_R_SQUARED 0.917, read-out: LUCIFERASE INFECTION ASSAY - IC50) is > 10 µM.
In the case of `O=C(Cc1noc2ccccc12)N1CCN(c2ccc(C(F)(F)F)cn2)CC1`, the IC90 was > 10 µM. The 50% inhibitory concentration (IC50) under setting [1] is > 10 µM.
Take `Cc1nc2cc3c(cc2n1CC(=O)N1CCN(c2ccccc2)CC1)OCCO3`: the IC90 is > 10 µM. For the same compound, the IC50 under setting [1] is > 10 µM.
On to `COc1ccc(C(=O)/C=C/c2cccc3cccnc23)cc1Br`, for which the concentration for an effect of 90% (IC90) was > 10 µM. The half-inhibitory concentration (IC50) (PBLUC_HILL_SLOPE 24.4, PBLUC_R_SQUARED 0.237, read-out: LUCIFERASE INFECTION ASSAY - IC50) is > 10 µM.
Consider `CC(C)Cc1nc2oc3c(NCC4CCCO4)ncnc3c2c2c1CCC2` (stereo not given), for which the 90% effect concentration (IC90) is 4.52 µM. Also, the 50% inhibitory concentration (IC50) (PBLUC_HILL_SLOPE 12.2, PBLUC_R_SQUARED 0.0912, read-out: LUCIFERASE INFECTION ASSAY - IC50) stood at 3.77 µM.
Take `CC(C)c1ccc(/C=C2\CCn3c2nc(=O)c2ccccc23)cc1`: the concentration for an effect of 90% (IC90) is > 10.4 µM. Moreover, the 50% inhibitory concentration (IC50) (PBLUC_HILL_SLOPE 2.01, PBLUC_R_SQUARED 0.333, read-out: LUCIFERASE INFECTION ASSAY - IC50) was 4.19 µM.
As for `C=CCc1c(C)[nH]c2c(-c3ccccc3)cnn2c1=O`, the IC90 amounted to 12.1 µM. For the same compound, the concentration for half-maximal inhibition (IC50) (PBLUC_HILL_SLOPE 3.12, PBLUC_R_SQUARED 0.621, read-out: LUCIFERASE INFECTION ASSAY - IC50) came to 6 µM.
Regarding `O=C(c1cn(-c2ccccc2)nc1-c1cc2ccccc2oc1=O)n1nnc2ccccc21`, the IC90 was determined as 3.36 µM. For the same compound, under setting [1], the IC50 stood at 3.27 µM.
The corresponding values for `Cc1ccc(-c2cc3nc(SCCOc4ccccc4F)n(Cc4ccccc4)c(=O)c3s2)cc1` are > 10 µM and > 10 µM.
`CC(C)N(CC(=O)Nc1ccc(Cl)cc1C(F)(F)F)C(=O)CNC(c1ccccc1)c1ccccc1`: the IC90 is > 10 µM. Besides, under setting [1], the IC50 is > 10 µM.
For the compound `Cc1cc(N2CCN(C(=O)c3cc(C4CC4)nn3-c3ccccc3)CC2)nc(C(C)C)n1`, the IC90 is > 10 µM. For the same compound, the half-maximal inhibitory concentration (IC50) (HEPG2TOX_HILL_SLOPE 7.58, HEPG2TOX_R_SQUARED 0.717, PBLUC_HILL_SLOPE 1.92, PBLUC_R_SQUARED 0.299, read-out: LUCIFERASE INFECTION ASSAY - IC50) is 4.83 µM.
As to `CCC(C)NC(=O)c1c(NC(=O)c2ccc(Cl)cc2)nc2ccc(C)cn12` (stereo not given), the 90% effect concentration (IC90) is 3.02 µM. The IC50 under setting [1] is 2.58 µM.
Regarding `CC(=O)Nc1cccc(-c2cc(NC=O)c3ncc(-c4ccc(C(C)=O)cc4)n3c2)c1`, the 90% effect concentration (IC90) was > 8 µM. Further, the IC50 (HEPG2TOX_HILL_SLOPE 0.38, HEPG2TOX_R_SQUARED 0.804, PBLUC_HILL_SLOPE 0.536, PBLUC_R_SQUARED 0.0495, read-out: LUCIFERASE INFECTION ASSAY - IC50) is > 8 µM.
As for `O=S(=O)(Oc1cccc(C(F)(F)F)c1)c1cc(S(=O)(=O)c2ccccc2)cs1`, the IC90 was > 7.36 µM. In addition, the 50% inhibitory concentration (IC50) under setting [1] was > 7.36 µM.
On to `CC1Sc2ccc(Cl)cc2C(=O)/C1=C/c1ccc(C(F)(F)F)cc1` (stereo not given), for which the IC90 was > 8.95 µM. For the same compound, the 50% inhibitory concentration (IC50) (PBLUC_HILL_SLOPE 11.4, PBLUC_R_SQUARED 0.0512, read-out: LUCIFERASE INFECTION ASSAY - IC50) is > 8.95 µM.
With `O=C(Nc1cccc(C(F)(F)F)c1)c1ccc(-c2ccccc2F)cc1`, the IC90 is > 9.18 µM. Under setting [1], the 50% inhibitory concentration (IC50) was > 9.18 µM.
